The source of these data is PubChem BioAssay (NCI).

Holding throughout (test): NCI tumour cell line growth inhibition, 48 h
Experiment [1] deals with NCI-H226 lung.
The subject of experiment [2] is SW-620 colon.
In experiment [3] the test system is NCI-H460 lung.
Experiment [4] concerns DU-145 prostate.
Experiment [5] has as its system NCI/ADR-RES ovarian.
For experiment [6], the system named is MALME-3M melanoma.
In experiment [7] the test system is A549 NSCLC.
Experiment [8] concerns SK-MEL-5 melanoma.
The subject of experiment [9] is MDA-MB-435.
Experiment [10] deals with MCF7 breast.
The test system of experiment [11] is CCRF-CEM leukemia.
The subject of experiment [12] is HL-60(TB) leukemia.
Experiment [13] has as its system OVCAR-8 ovarian.
Experiment [14] deals with SNB-75 CNS.
The subject of experiment [15] is OVCAR-3 ovarian.
The subject of experiment [16] is SNB-19 CNS.
Experiment [17] deals with NCI-H23 lung.
The subject of experiment [18] is HCT-116 colon.
Experiment [19] has as its system RXF 393 renal.
Experiment [20] deals with A498 renal.

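How tested: cells in 96-well plates exposed to compound for 48 hours at five concentrations. TGI: concentration producing complete growth inhibition.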 Some results are limits rather than exact numbers.

Take `NC(N)=NS(=O)(=O)c1ccc(NC(=O)c2ccc3[nH]c4ccccc4c(=O)c3c2)cc1`: the TGI in [1], in [2], in experiment [3], in [4], in [5] and in [6] was greater than 100 µM throughout. Further, the TGI in experiment [7], in experiment [8], in experiment [9], in experiment [10], in experiment [11] and in [12] was greater than 100 µM in each case. Moreover, the TGI in experiment [13], in experiment [14], in [15], in [16], in experiment [17] and in experiment [18] was greater than 100 µM each time. In experiment [19], the TGI was greater than 100 µM.

As to `COC(=O)c1c2c(cc3c1CC1(Cc4cc5c(cc4C1)CCC5)C3)CCC2`, the TGI in [2], in experiment [3], in experiment [20], in experiment [4], in [5] and in experiment [6] was greater than 100 µM throughout. Besides, the TGI in experiment [7], in experiment [8], in experiment [9], in experiment [10], in experiment [11] and in experiment [12] was greater than 100 µM throughout. Further, the TGI in experiment [13], in experiment [14], in experiment [15], in experiment [16], in experiment [17] and in experiment [18] was greater than 100 µM throughout. The same compound had a TGI in experiment [19] greater than 100 µM.

Consider `Cn1c(-c2ccc(N=NNc3ccc(-c4n[nH]c(=S)n4C)cc3)cc2)n[nH]c1=S`, for which the TGI is 48.8 µM in [1]; greater than 100 µM in [2]; greater than 100 µM in experiment [20]; 30.6 µM in [4]; greater than 100 µM in [5]; greater than 100 µM in [6]. The TGI is greater than 100 µM in [7]; 48.1 µM in experiment [8]; greater than 100 µM in [9]; greater than 100 µM in experiment [10]; greater than 100 µM in experiment [11]; greater than 100 µM in [12]. For the same compound, the TGI in experiment [13] is 23.4 µM; in [14] it was 35.1 µM; in [15] it was greater than 100 µM; in [16] it was 70.2 µM; in experiment [17] it was greater than 100 µM; in experiment [18], greater than 100 µM. The TGI in experiment [19] is 32.6 µM.

For the compound `N#Cc1c(-c2ccccc2)c(C#N)c(=O)n(C2OC(CO)C(O)C(O)C2O)c1S` (configuration not stated), the TGI in experiment [1], in [2], in experiment [3], in [20], in experiment [4] and in experiment [5] was greater than 100 µM throughout. Moreover, the TGI in [6], in experiment [7], in experiment [8], in [9], in experiment [10] and in experiment [11] was greater than 100 µM each time. For the same compound, the TGI in experiment [12], in [13], in experiment [14], in experiment [15], in experiment [16] and in [17] was greater than 100 µM throughout. The compound further displayed a TGI in experiment [19] greater than 100 µM.

`C=C1CC(CN2CCC(=O)NC2=O)(c2ccccc2)OC1=O` (configuration not stated): the TGI is 34.3 µM in experiment [1]; 4.78 µM in experiment [2]; 38.2 µM in experiment [3]; 37.6 µM in experiment [20]; 30.1 µM in experiment [4]; 32.8 µM in experiment [5]. For the same compound, the TGI in experiment [6] worked out at 8.78 µM; in experiment [7], 33 µM; in [8], 24.8 µM; in experiment [9] it was 23.6 µM; in experiment [10], 2.71 µM; in experiment [11], 4.92 µM. Moreover, the TGI in [12] is 4.04 µM; in experiment [13], 36.7 µM; in experiment [14] it was 32.3 µM; in experiment [15], 31.7 µM; in experiment [16] it was greater than 56.2 µM; in experiment [17] it was 22.5 µM. In addition, the TGI in experiment [18] came out at 12.2 µM.

With `C=CCn1cnc2c(=O)[nH]c(Nc3ccccc3)nc21`, the TGI in experiment [1], in experiment [2], in experiment [3], in [20], in [4] and in experiment [5] was greater than 100 µM each time. Also, the TGI in experiment [6], in [7], in [8], in experiment [9], in experiment [10] and in experiment [11] was greater than 100 µM throughout. Moreover, the TGI in experiment [12], in [13], in experiment [14], in experiment [15], in [16] and in experiment [18] was greater than 100 µM throughout.

On to `BrCC(Br)(c1ccccc1)c1ccccc1-c1cc(-c2ccccc2)cc(-c2ccccc2)n1` (configuration not stated), for which the TGI in [1] is 15.1 µM; in experiment [2] it was 14.2 µM; in experiment [3], 11.9 µM; in experiment [20], 15.6 µM; in [4], greater than 45.5 µM; in experiment [5], greater than 100 µM. In addition, the TGI in [6] was 16.4 µM; in experiment [7], 25.5 µM; in experiment [8], 3.82 µM; in [9] it was 4.63 µM; in experiment [10], 4.12 µM; in experiment [11] it was greater than 53.3 µM. Moreover, the TGI in experiment [12] came out at 2.33 µM; in experiment [13], 16.7 µM; in [14] it was 4.08 µM; in experiment [16], 31.9 µM; in experiment [17], 36 µM; in experiment [18] it was 12.3 µM. The TGI in [19] is 5.92 µM.
